Laboratory results as given in patent US10251831B2, “Extract for treating wrinkles and/or fine lines” (Avon Products, Inc., priority 2009, dated 2019).

Assays:
[1] = test system: paxillin mRNA; test: Stimulation of paxillin mRNA in vitro (QuantiGene multiplex branched DNA assay); assay type: cell-based; settings: normal human dermal fibroblasts, 24 hours treatment, normalized to GAPDH
Experimental: Normal human dermal fibroblasts (Cascade Biologics) were cultured in 96-well tissue culture treated plates, with 200 μl DMEM in 10% serum per well, and incubated for 24 hours at 37° C. and 10% CO2. In some cases, normal human epidermal keratinocytes (Cascade Biologics) were cultured in 200 μl EpiLife medium (Cascade Biologics) per well, and incubated overnight at 37° C. and 5% CO2.
Stock solutions of candidate paxillin stimulators (test materials) were made in appropriate solvents (e.g., DMSO, water, ethanol, a 50:50 ethanol:water mixture) to give weight % as indicated in Table 1 below. Cells were treated with test material or a respective vehicle control diluted in growth medium for 24 hours in a humidified 37° C. incubator with 10% CO2. After incubation, growth medium from each plate was removed and 100 μl of lysis buffer was added to the wells and placed in 37° C. incubator with 5% CO2 for 30 minutes. At the end of incubation, the cells were collected in freezer plates and placed in a −80° C. freezer until analysis.
Changes in mRNA for paxillin in cell lysates after treatment were analysed using QuantiGene® multiplex assay (Panomics Inc. CA) that employs a branched DNA technology. This technology is a hybridization-based method of target-specific RNA quantification that amplifies a signal(s) rather than target RNA, using labelled DNA probe. Probes for Paxillin gene (ID: NM_005953) were designed and synthesized. Paxillin probes, reference probes PPIB and GAPDH, along with a set of other probes were used in this multiplex assay.
The probes used include capture extenders (CE), label extenders (LE), and blockers (BL). As described above, this arrangement provides a target sequence that is double-stranded, thereby improving hybridization efficiency. The CE, LE, and BL sequences used for identifying paxillin mRNA corresponded to SEQ ID NOS: 1, 2, and 3, respectively.
Appropriately diluted cell lysates were hybridized with the paxillin and reference probes in a hybridization plate in a Vortemp shaking incubator, for 18-22 hours at 54° C.±1° C. and 600 rpm. Once the paxillin and the reference mRNAs were captured, the unbound material was filtered using filter plates and washed three times with a wash buffer. Signal amplification was performed using two steps—first a 2.0 Pre-amplifier (Panomics Inc.) was added and incubated for 1 hour in the Vortemp shaking incubator at 54° C.±1° C. and 600 rpm. Unbound Pre-amplifier was filtered using a Filter plate and washed twice. Next the samples were exposed to 2.0 Amplifier (Panomics Inc.) and incubated, filtered, and washed as with the Pre-amplifier. Next the samples were hybridized with biotinylated labelled probe, and incubated for one hour at 54° C.±1° C. and 600 rpm. Samples were then filtered and washed as above. Finally, Streptavidin-conjugated Phycoerythrin (SAPE) working reagent was added and the mixture shaken for 30 minutes at room temperature covered in aluminium foil. Unbound SAPE was filtered and washed twice. SAPE wash buffer was added to each well with shaking for 2-5 minutes, and then readings were taken immediately using a Luminex machine.
Values for amounts of paxillin mRNA were determined along with those for the reference genes PPIB and GAPDH. Values were normalized to GAPDH to determine changes in paxillin mRNA after treatment. Percent increase in mRNA for paxillin was calculated in each case by comparing values after treatment with a candidate paxillin stimulator to values after treatment with the vehicle control.

[2] = test system: Paxillin protein; test: Stimulation of paxillin protein in human skin biopsy (topical patch, immunohistochemistry); assay type: in vivo
Source text: Compositions comprising a paxillin stimulator were each tested on 21 subject volunteers. For each paxillin stimulator, the composition was topically applied via a patch attached to the back of a randomly selected forearm of each of 21 volunteers, and a vehicle control was similarly applied to the back of the volunteer's forearm. After 3 weeks, the human skin biopsies were taken from the treated skin of the various volunteers and subjected to immunohistochemisty preparation. […] Elevated protein level was determined for each treated subject by comparing to the vehicle control.

Cc1ccc(C(C)C)cc1O [Carvacrol]
% increase in Paxillin (relative to control) ([1]; Weight % 0.0001%): 39.50%

O=C(c1ccccc1)N1C[C@@H]2C[C@H](C1)c1ccc(-c3ccco3)c(=O)n1C2 [Compound of Formula V]
% increase in Paxillin (relative to control) ([1]; Weight % 0.00005%): 28.52%

Oc1ccc(C2COc3cc(O)ccc3C2)cc1 (stereo not drawn) [Equol, 4′,7-isoflavandiol]
% increase in Paxillin (relative to control) ([1]; Weight % 0.0001%): 61.46% | % increase in Paxillin (relative to control) ([1]; Weight % 0.001%): 220.36%

CCCCCCCC/C=C\CCCCCCCC(=O)OC/C=C(C)/C=C/C=C(C)/C=C/C1=C(C)CCCC1(C)C [Retinyl oleate]
% increase in Paxillin (relative to control) ([1]; Weight % 0.01%): 60.21%

CCCCC=CC=CC=CCCCCCCCC(=O)OCC=C(C)C=CC=C(C)C=CC1=C(C)CCCC1(C)C [Retinyl punicate]
% increase in Paxillin (relative to control) ([1]; Weight % 0.01%): 69.68%

Cc1coc2c1C(=O)C(=O)c1c-2ccc2c1CCCC2(C)C [Tanshinone IIA, 1,6,6-trimethyl-8,9-dihydro-7H-naphtho[1,2-g][1]benzofuran-10,11-dione]
% increase in Paxillin (relative to control) ([1]; Weight % 0.025%): 188.31%

COc1ccc2cc1Oc1ccc(cc1)C[C@H]1c3cc(c(OC)cc3CCN1C)Oc1c(OC)c(OC)cc3c1[C@H](C2)N(C)CC3 [Tetrandine, 6,6′,7,12-Tetramethoxy-2,2′-dimethyl-berbaman]
% increase in Paxillin (relative to control) ([1]; Weight % 0.001%): 84.31%

CC/C=C\CCCCCO [cis-6-Nonenol, Cis-6-Nonenol]
% Subjects Improved ([2]; percentage of subjects with elevated paxillin protein level vs vehicle control, topical patch on forearm, 3 weeks): 71.4% | paxillin protein in human skin biopsies (antibody stain, FIG. 1) ([2]; representative photographs, compared to treatment with a control): increased paxillin protein | No. Showing Improvement ([2]; subjects with elevated paxillin protein level vs vehicle control, topical patch on forearm, 3 weeks, 21 subjects): 15 | % increase in Paxillin (relative to control) ([1]; Weight % 0.001%): 60.84%
